Laboratory results from ChEMBL document CHEMBL3885861, “Open TG-GATES”.

Species on record: Rattus norvegicus
Experiment: Open TG-GATES - Regimen: Daily Repeat
Format: toxicity, organism-based, Sprague-Dawley
Parameters: regimen Daily Repeat, gender Male, age 6 weeks
Details: in vivo, po, 100 mg/kg, route gavage, dose level Low; for APTT / Bas / Eos / Fbg / Hb / Ht / Lym / MCH / MCHC / MCV / Mono / Neu / PT / Plat / RBC / Ret / WBC: tissue Blood; for KIDNEY_L / KIDNEY_R / KIDNEY_TOTAL: tissue Kidney; for LIVER: tissue Liver; for A/G / ALP / ALT / AST / BUN / CRE / Ca / Cl / DBIL / GLC / IP / K / LDH / Na / PL / RALB / TBIL / TC / TG / TP / gamma-GTP: tissue Plasma

## O=C(O)c1cc(/N=N/c2ccc(S(=O)(=O)Nc3ccccn3)cc2)ccc1O [SULFASALAZINE]
72 h, time 3 day
  TERMINAL_BW: 236.6 g
  APTT: 18.4 s
  Bas: 0%
  Eos: 1%
  Fbg: 226.6 mg/dL
  Hb: 13.6 g/dL
  Ht: 39.7%
  Lym: 79.8%
  MCH: 21.5 pg
  MCHC: 34.3%
  MCV: 62.6 fL
  Mono: 3.2%
  Neu: 14.4%
  PT: 12.6 s
  Plat: 129.7 x10_4/uL
  RBC: 634.2 x10_4/ul
  Ret: 6.4%
  WBC: 114.1 x10_2/uL
  KIDNEY_L: 1 g
  KIDNEY_R: 1 g
  KIDNEY_TOTAL: 2 g
  LIVER: 10.9 g
  A/G: 1.5
  ALP: 979.2 IU/L
  ALT: 44.4 IU/L
  AST: 86.8 IU/L
  BUN: 16.4 mg/dL
  CRE: 0.4 mg/dL
  Ca: 10.9 mg/dL
  Cl: 103 meq/L
  DBIL: 0.09 mg/dL
  GLC: 201 mg/dL
  IP: 7.4 mg/dL
  K: 4.2 meq/L
  LDH: 286.8 IU/L
  Na: 140.4 meq/L
  PL: 154.6 mg/dL
  RALB: 3.3 g/dL
  TBIL: 0.1 mg/dL
  TC: 76.8 mg/dL
  TG: 83.4 mg/dL
  TP: 5.6 g/dL
  gamma-GTP: 1.4 IU/L
[…], time 7 day
  TERMINAL_BW: 262.7 g
  APTT: 19.1 s
  Bas: 0%
  Eos: 1%
  Fbg: 216.2 mg/dL
  Hb: 13.8 g/dL
  Ht: 39.9%
  Lym: 82%
  MCH: 21.1 pg
  MCHC: 34.5%
  MCV: 61.3 fL
  Mono: 1.8%
  Neu: 13.6%
  PT: 12.5 s
  Plat: 116 x10_4/uL
  RBC: 651.8 x10_4/ul
  Ret: 5.1%
  WBC: 110 x10_2/uL
  KIDNEY_L: 1.1 g
  KIDNEY_R: 1.1 g
  KIDNEY_TOTAL: 2.2 g
  LIVER: 11.9 g
  A/G: 1.6
  ALP: 780.6 IU/L
  ALT: 31.8 IU/L
  AST: 63.8 IU/L
  BUN: 16.4 mg/dL
  CRE: 0.4 mg/dL
  Ca: 10.6 mg/dL
  Cl: 103.4 meq/L
  DBIL: 0.074 mg/dL
  GLC: 232 mg/dL
  IP: 7.2 mg/dL
  K: 3.7 meq/L
  LDH: 217.4 IU/L
  Na: 140.6 meq/L
  PL: 149.6 mg/dL
  RALB: 3.5 g/dL
  TBIL: 0.1 mg/dL
  TC: 72.8 mg/dL
  TG: 71 mg/dL
  TP: 5.7 g/dL
  gamma-GTP: 1.4 IU/L
[…], time 14 day
  TERMINAL_BW: 309.6 g
  APTT: 19.4 s
  Bas: 0%
  Eos: 1%
  Fbg: 214 mg/dL
  Hb: 14.5 g/dL
  Ht: 41.3%
  Lym: 79.2%
  MCH: 21.2 pg
  MCHC: 35.1%
  MCV: 60.4 fL
  Mono: 2.6%
  Neu: 16.2%
  PT: 12.5 s
  Plat: 107.7 x10_4/uL
  RBC: 684.4 x10_4/ul
  Ret: 4.6%
  WBC: 116.3 x10_2/uL
  KIDNEY_L: 1.2 g
  KIDNEY_R: 1.2 g
  KIDNEY_TOTAL: 2.3 g
  LIVER: 13 g
  A/G: 1.5
  ALP: 842.8 IU/L
  ALT: 34 IU/L
  AST: 65.6 IU/L
  BUN: 16.8 mg/dL
  CRE: 0.5 mg/dL
  Ca: 10.5 mg/dL
  Cl: 103.4 meq/L
  DBIL: 0.1 mg/dL
  GLC: 203.8 mg/dL
  IP: 6.5 mg/dL
  K: 3.6 meq/L
  LDH: 196 IU/L
  Na: 141.4 meq/L
  PL: 153.6 mg/dL
  RALB: 3.5 g/dL
  TBIL: 0.2 mg/dL
  TC: 70.6 mg/dL
  TG: 133.4 mg/dL
  TP: 5.8 g/dL
  gamma-GTP: 1.2 IU/L
[…], time 28 day
  TERMINAL_BW: 389.8 g
  APTT: 19.7 s
  Bas: 0%
  Eos: 1%
  Fbg: 231 mg/dL
  Hb: 15.1 g/dL
  Ht: 42.4%
  Lym: 81.2%
  MCH: 19.8 pg
  MCHC: 35.6%
  MCV: 55.6 fL
  Mono: 2.4%
  Neu: 14.6%
  PT: 12.6 s
  Plat: 105.8 x10_4/uL
  RBC: 764.8 x10_4/ul
  Ret: 3.2%
  WBC: 113.7 x10_2/uL
  KIDNEY_L: 1.4 g
  KIDNEY_R: 1.4 g
  KIDNEY_TOTAL: 2.7 g
  LIVER: 15 g
  A/G: 1.3
  ALP: 678.2 IU/L
  ALT: 38.8 IU/L
  AST: 65.8 IU/L
  BUN: 18 mg/dL
  CRE: 0.5 mg/dL
  Ca: 10.5 mg/dL
  Cl: 102.8 meq/L
  DBIL: 0.1 mg/dL
  GLC: 215 mg/dL
  IP: 6 mg/dL
  K: 3.6 meq/L
  LDH: 185.6 IU/L
  Na: 141.4 meq/L
  PL: 154 mg/dL
  RALB: 3.6 g/dL
  TBIL: 0.2 mg/dL
  TC: 71.6 mg/dL
  TG: 129.8 mg/dL
  TP: 6.3 g/dL
  gamma-GTP: 0.6 IU/L
